According to patent US12077503B2, “Substituted cyclic amides and their use as herbicides” (FMC CORPORATION, priority 2015, dated 2024):

Tests used:
Type in all cases: in vivo
[1] = tested on: barnyardgrass (Echinochloa crus-galli); assay: Test G Pre-Emergence Protocol; settings: Echinochloa crus-galli, pre-emergence, 312 h, evaluated after 13 days; for pest or weed control at 15.625 g/ha: 15.625 g ai/ha; for pest or weed control at 15.625 g/ha / pest or weed control at 250 g/ha: read-out: Barnyardgrass damage rating (100=total damage to plant; 0=no damage to plant); for pest or weed control at 62.5 g/ha: 62.5 g ai/ha, 100=total damage to plant, 0=no damage to plant, read-out: Barnyardgrass damage rating; for pest or weed control at 250 g/ha: 250 g ai/ha
Method in brief: (§1)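 Spraying took place one day after sowing, at 15.625, 62.5 or 250 g/ha, using an acetone/water (50:50) spray solution containing 0.5% Tween 20. Plants were kept under glasshouse conditions (24/16 °C, 14 h light, 65% humidity, watered twice daily), and injury was rated 0–100 at day 13.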

[2] = tested on: corn (Zea mays); assay: Test G Pre-Emergence Protocol; settings: Zea mays, pre-emergence, 312 h, evaluated after 13 days; for plant injury at 15.625 g/ha: 15.625 g ai/ha; for plant injury at 15.625 g/ha / plant injury at 250 g/ha: read-out: Corn damage rating (100=total damage to plant; 0=no damage to plant); for plant injury at 62.5 g/ha: 62.5 g ai/ha, 100=total damage to plant, 0=no damage to plant, read-out: Corn damage rating; for plant injury at 250 g/ha: 250 g ai/ha
Method in brief: as §1

[3] = tested on: giant foxtail (Setaria faberi); assay: Test G Pre-Emergence Protocol; settings: Setaria faberi, pre-emergence, 312 h, evaluated after 13 days; for pest or weed control at 15.625 g/ha: 15.625 g ai/ha; for pest or weed control at 15.625 g/ha / pest or weed control at 250 g/ha: read-out: Foxtail, Giant damage rating (100=total damage to plant; 0=no damage to plant); for pest or weed control at 62.5 g/ha: 62.5 g ai/ha, 100=total damage to plant, 0=no damage to plant, read-out: Foxtail, Giant damage rating; for pest or weed control at 250 g/ha: 250 g ai/ha
Method in brief: as §1

[4] = tested on: ivy-leaved morning glory (Ipomoea hederacea); assay: Test G Pre-Emergence Protocol; settings: Ipomoea, pre-emergence, 312 h, evaluated after 13 days; for pest or weed control at 15.625 g/ha: 15.625 g ai/ha; for pest or weed control at 15.625 g/ha / pest or weed control at 250 g/ha: read-out: Morningglory, Ivy-leaved damage rating (100=total damage to plant; 0=no damage to plant); for pest or weed control at 62.5 g/ha: 62.5 g ai/ha, 100=total damage to plant, 0=no damage to plant, read-out: Morningglory, Ivy-leaved damage rating; for pest or weed control at 250 g/ha: 250 g ai/ha
Method in brief: as §1

[5] = tested on: redroot pigweed (Amaranthus retroflexus); assay: Test G Pre-Emergence Protocol; settings: Amaranthus retroflexus, pre-emergence, 312 h, evaluated after 13 days; for pest or weed control at 15.625 g/ha: 15.625 g ai/ha; for pest or weed control at 15.625 g/ha / pest or weed control at 250 g/ha: read-out: Pigweed, Redroot damage rating (100=total damage to plant; 0=no damage to plant); for pest or weed control at 62.5 g/ha: 62.5 g ai/ha, 100=total damage to plant, 0=no damage to plant, read-out: Pigweed, Redroot damage rating; for pest or weed control at 250 g/ha: 250 g ai/ha
Method in brief: as §1

[6] = tested on: velvetleaf (Abutilon theophrasti); assay: Test G Pre-Emergence Protocol; settings: Abutilon theophrasti, pre-emergence, 312 h, evaluated after 13 days; for pest or weed control at 15.625 g/ha: 15.625 g ai/ha; for pest or weed control at 15.625 g/ha / pest or weed control at 250 g/ha: read-out: Velvetleaf damage rating (100=total damage to plant; 0=no damage to plant); for pest or weed control at 62.5 g/ha: 62.5 g ai/ha, 100=total damage to plant, 0=no damage to plant, read-out: Velvetleaf damage rating; for pest or weed control at 250 g/ha: 250 g ai/ha
Method in brief: as §1

[7] = tested on: barnyardgrass (Echinochloa crus-galli); assay: Test G Post-Emergence Protocol; settings: Echinochloa crus-galli, post-emergence, 312 h, read-out: Barnyardgrass damage rating; for pest or weed control at 15.625 g/ha: 15.625 g ai/ha, evaluated after 13 days (100=total damage to plant; 0=no damage to plant); for pest or weed control at 62.5 g/ha: 62.5 g ai/ha; for pest or weed control at 62.5 g/ha / pest or weed control at 250 g/ha: evaluated after 13 days, 100=total damage to plant, 0=no damage to plant; for pest or weed control at 250 g/ha: 250 g ai/ha
Method in brief: (§2)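 Pot-grown seedlings, 8 days old, raised in a glasshouse at 24/16 °C day/night with 14 h light and 65% humidity, were sprayed post-emergence with test compound in acetone/water (50:50) plus 0.5% Tween 20 at 15.625, 62.5 or 250 g/ha. Damage was scored visually 13 days later on a 0–100 scale (100 = total damage).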

[8] = tested on: corn (Zea mays); assay: Test G Post-Emergence Protocol; settings: Zea mays, post-emergence, 312 h, read-out: Corn damage rating; for plant injury at 15.625 g/ha: 15.625 g ai/ha, evaluated after 13 days (100=total damage to plant; 0=no damage to plant); for plant injury at 62.5 g/ha: 62.5 g ai/ha; for plant injury at 62.5 g/ha / plant injury at 250 g/ha: evaluated after 13 days, 100=total damage to plant, 0=no damage to plant; for plant injury at 250 g/ha: 250 g ai/ha
Method in brief: as §2

[9] = tested on: giant foxtail (Setaria faberi); assay: Test G Post-Emergence Protocol; settings: Setaria faberi, post-emergence, 312 h, read-out: Foxtail, Giant damage rating; for pest or weed control at 15.625 g/ha: 15.625 g ai/ha, evaluated after 13 days (100=total damage to plant; 0=no damage to plant); for pest or weed control at 62.5 g/ha: 62.5 g ai/ha, evaluated after 13 days, 100=total damage to plant, 0=no damage to plant
Method in brief: as §2

[10] = tested on: ivy-leaved morning glory (Ipomoea hederacea); assay: Test G Post-Emergence Protocol; settings: Ipomoea, post-emergence, 312 h, read-out: Morningglory, Ivy-leaved damage rating; for pest or weed control at 15.625 g/ha: 15.625 g ai/ha, evaluated after 13 days (100=total damage to plant; 0=no damage to plant); for pest or weed control at 62.5 g/ha: 62.5 g ai/ha; for pest or weed control at 62.5 g/ha / pest or weed control at 250 g/ha: evaluated after 13 days, 100=total damage to plant, 0=no damage to plant; for pest or weed control at 250 g/ha: 250 g ai/ha
Method in brief: as §2

[11] = tested on: redroot pigweed (Amaranthus retroflexus); assay: Test G Post-Emergence Protocol; settings: Amaranthus retroflexus, post-emergence, 312 h, read-out: Pigweed, Redroot damage rating; for pest or weed control at 15.625 g/ha: 15.625 g ai/ha, evaluated after 13 days (100=total damage to plant; 0=no damage to plant); for pest or weed control at 62.5 g/ha: 62.5 g ai/ha; for pest or weed control at 62.5 g/ha / pest or weed control at 250 g/ha: evaluated after 13 days, 100=total damage to plant, 0=no damage to plant; for pest or weed control at 250 g/ha: 250 g ai/ha
Method in brief: as §2

[12] = tested on: velvetleaf (Abutilon theophrasti); assay: Test G Post-Emergence Protocol; settings: Abutilon theophrasti, post-emergence, 312 h, read-out: Velvetleaf damage rating; for pest or weed control at 15.625 g/ha: 15.625 g ai/ha, evaluated after 13 days (100=total damage to plant; 0=no damage to plant); for pest or weed control at 62.5 g/ha: 62.5 g ai/ha; for pest or weed control at 62.5 g/ha / pest or weed control at 250 g/ha: evaluated after 13 days, 100=total damage to plant, 0=no damage to plant; for pest or weed control at 250 g/ha: 250 g ai/ha
Method in brief: as §2

Structure (SMILES)	pest or weed control at 15.625 g/ha [1] [%]	pest or weed control at 62.5 g/ha [1] [%]	pest or weed control at 250 g/ha [1] [%]	plant injury at 15.625 g/ha [2] [%]	plant injury at 62.5 g/ha [2] [%]	plant injury at 250 g/ha [2] [%]	pest or weed control at 15.625 g/ha [3] [%]	pest or weed control at 62.5 g/ha [3] [%]	pest or weed control at 250 g/ha [3] [%]	pest or weed control at 15.625 g/ha [4] [%]	pest or weed control at 62.5 g/ha [4] [%]	pest or weed control at 250 g/ha [4] [%]	pest or weed control at 15.625 g/ha [5] [%]	pest or weed control at 62.5 g/ha [5] [%]	pest or weed control at 250 g/ha [5] [%]	pest or weed control at 15.625 g/ha [6] [%]	pest or weed control at 62.5 g/ha [6] [%]	pest or weed control at 250 g/ha [6] [%]	pest or weed control at 15.625 g/ha [7] [%]	pest or weed control at 62.5 g/ha [7] [%]	also measured
CCOc1cc([C@@H]2CN(C)C(=O)[C@H]2C(=O)Nc2cccc(F)c2C)ccc1C(F)(F)F (racemic) [Compound 1787]	50	60	90	20	20	40	60	70	90	0	0	20	0	0	20	0	10	20	20	60	pest or weed control at 250 g/ha [7]: 60%; plant injury at 15.625 g/ha [8]: 30%; plant injury at 62.5 g/ha [8]: 50%; plant injury at 250 g/ha [8]: 60%; pest or weed control at 15.625 g/ha [9]: 40%; pest or weed control at 62.5 g/ha [9]: 70%; pest or weed control at 15.625 g/ha [10]: 50%; pest or weed control at 62.5 g/ha [10]: 70%; pest or weed control at 250 g/ha [10]: 70%; pest or weed control at 15.625 g/ha [11]: 20%; pest or weed control at 62.5 g/ha [11]: 20%; pest or weed control at 250 g/ha [11]: 70%; pest or weed control at 15.625 g/ha [12]: 20%; pest or weed control at 62.5 g/ha [12]: 20%; pest or weed control at 250 g/ha [12]: 40%
CN1C[C@H](c2ccc(C(F)(F)F)cc2)[C@@H](C(=O)Nc2cccnc2S(C)(=O)=O)C1=O (racemic) [Compound 1789]	0	0	0	0	0	10	0	0	0	0	0	0	0	0	20	0	0	20	0	0	pest or weed control at 250 g/ha [7]: 0%; plant injury at 15.625 g/ha [8]: 0%; plant injury at 62.5 g/ha [8]: 0%; plant injury at 250 g/ha [8]: 10%; pest or weed control at 15.625 g/ha [9]: 0%; pest or weed control at 62.5 g/ha [9]: 0%; pest or weed control at 15.625 g/ha [10]: 0%; pest or weed control at 62.5 g/ha [10]: 0%; pest or weed control at 250 g/ha [10]: 0%; pest or weed control at 15.625 g/ha [11]: 0%; pest or weed control at 62.5 g/ha [11]: 0%; pest or weed control at 250 g/ha [11]: 20%; pest or weed control at 15.625 g/ha [12]: 0%; pest or weed control at 62.5 g/ha [12]: 0%; pest or weed control at 250 g/ha [12]: 20%
